Legend:
Plasmodium falciparum [1] = assay: NOVARTIS: Inhibition of Plasmodium falciparum W2 (drug-resistant) proliferation in erythrocyte-based infection assay; assay type: functional, organism-based; conditions: Plasmodium falciparum, W2; read-out: EC50
Plasmodium falciparum [2] = assay: NOVARTIS: Inhibition of Plasmodium falciparum 3D7 (drug-susceptible) proliferation in erythrocyte-based infection assay; assay type: functional, organism-based; conditions: Plasmodium falciparum, 3D7
[3] = NOVARTIS: Cytotoxicity against human hepatocellular carcinoma cell line (Huh7); assay type: toxicity, cell-based, Huh-7; conditions: Huh7 cells (hepatocellular carcinoma cell line)

SMILES | EC50 (Plasmodium falciparum [1]) [nM] | EC50 (Plasmodium falciparum [2]) [nM] | CC50 [3] [nM]
C(=C1\C(c2ccccc2)=Nc2ccccc21)/c1c(-c2ccccc2)[nH]c2ccccc12 | 36.4 | 210 | > 10000
CCNc1nc(NC(C)CC)nc(ON=C(C)C)n1 (stereo not drawn) | 118 | 441 | > 100000
CCOC(=O)c1cnc2ccccc2c1NCCCN(C)C | 222 | 198 | 52100
COc1ccccc1NC(=O)c1n[nH]c(=O)c2ccccc12 | > 1250 | > 1060 | > 10000
Cc1ccc(C2CC(C(F)(F)F)n3ncc(C(=O)Nc4ccc(OC(F)(F)F)cc4)c3N2)cc1 (stereo not drawn) | 293 | 282 | > 100000
COc1ccc(C2C(C(=O)OC3CCCC3)=C(C)NC3=C2C(=O)CC(C)(C)C3)cc1Br (stereo not drawn) | 1550 | 7000 | > 100000
CCSc1nc2sc3c(c2c(=O)n1-c1ccccc1)CCN(Cc1ccccc1)C3 | 34.8 | 85.8 | > 68400
CCOC(=O)c1c(NC(=O)C(C)Sc2nnc(CNC(=O)c3ccco3)n2-c2cccc(Cl)c2)sc2c1CCCC2 (stereo not drawn) | 424 | > 12500 | > 100000
Cc1ccccc1OCC(O)Cn1c(NC2CCCCC2)nc2c1c(=O)[nH]c(=O)n2C (stereo not drawn) | 549 | > 1700 | > 10000
CN1CCN(C(=S)NC(=O)/C=C/c2ccc(F)cc2)CC1 | > 874 | > 1250 | > 10000
COc1nc(NC(=N)N)nc2ccc(C)cc12 | 608 | 880 | 58000
COc1cccc(-c2cc(N=C(NCc3ccco3)SC)n[nH]2)c1 | 2870 | > 11300 | 70400
CC(NCCC(c1ccccc1)c1ccccc1O)c1ccccc1 (stereo not drawn) | 277 | 1120 | > 10000
CC(=NNC(=O)/C(=C/c1ccc([N+](=O)[O-])cc1)NC(=O)c1ccccc1)c1ccccn1 | 117 | 1050 | > 10000
O=C(C1CCC1)N1CCOc2c(cc(-c3csc4ccccc34)cc2OCCc2ccccn2)C1 | 515 | 754 | > 99600
CCC(C)OC(=O)C1=C(C)NC2=C(C(=O)CC(c3ccc(Cl)cc3)C2)C1c1ccccc1F (stereo not drawn) | 58.3 | 205 | > 100000
Cc1cc(C)nc(NNc2c([N+](=O)[O-])cccc2[N+](=O)[O-])n1 | 167 | 1800 | 22000
N#C/C(=C\c1cn(Cc2ccccc2Cl)c2ccccc12)c1nn(CCO)c(N)c1C#N | 450 | 500 | > 10000
O=C1/C(=C\c2ccccc2)SC(=Nc2ccccc2)N1C1CCCCC1 | 545 | 348 | > 100000
CC[n+]1c(C)cc2c(sc3ccccc32)c1C | 1870 | 1050 | > 100000
CC(C)CCNCC(O)Cn1c2ccc(Br)cc2c2cc(Br)ccc21 (stereo not drawn) | 88.5 | 270 | 19000
N=c1c2c(n(Cc3ccccc3)c3c1CCC3)CCC2 | 329 | 280 | 41200
Cc1ccc(CN2C3CCCC2CC(NC(=O)Nc2cccc(F)c2)C3)cc1 (stereo not drawn) | 695 | 898 | > 10000
COc1ccc(C2Nc3ccc([N+](=O)[O-])cc3C3C=CCC32)cc1[N+](=O)[O-] (stereo not drawn) | 616 | 1500 | > 100000
CN1CCC(NCCc2ccc(Cl)cc2)CC1 | 210 | 909 | 18900
CN(C)CCNC(=O)c1c[nH]c2ccc(S(=O)(=O)N3CCc4ccccc43)cc2c1=O | > 1250 | 418 | > 10000

SMILES | EC50 (Plasmodium falciparum [1]) [nM] | EC50 (Plasmodium falciparum [2]) [nM] | CC50 [3] [nM]
OC1=C2C(=Nc3ccccc3SC2c2ccccc2)c2ccccc21 (stereo not drawn) | 112 | 46.7 | 27100
CCCOC(=O)C1=C(C)NC2=C(C(=O)CC(c3ccc(OC)c(OC)c3)C2)C1c1ccc(Cl)cc1Cl (stereo not drawn) | 4.36 | 7.62 | > 100000
COc1cc(C=C(C#N)c2nc3ccccc3[nH]2)ccc1OCc1ccccc1 | 1590 | 766 | > 100000
c1ccc(CNc2nc(-c3ccccn3)nnc2-c2ccccc2)cc1 | 326 | 182 | 630
Brc1ccc(-c2n(Cc3ccccc3)c3ccccc3[n+]2Cc2ccccc2)o1 | 260 | 167 | 11000
CCOc1ccc(Nc2cc(C)nc3ccc(OCC)cc23)cc1 | 20.3 | > 1250 | > 10000
O=C(Cc1ccsc1)N1CCOc2c(cc(-c3csc4ccccc34)cc2OCCc2ccccn2)C1 | 223 | 379 | > 100000
COc1ccc(CNC2CCN(CCN3CCCCC3)C(c3ccc(OCc4ccccc4)cc3)C2)cc1OC (stereo not drawn) | 447 | 662 | 5060
CCOC(=O)c1cccc(NC(=O)CCn2c(-c3ccc(F)cc3)cc(C(=O)OCC)c2C)c1 | 89.7 | 59 | > 100000
O=C(O)c1ccc(S(=O)(=O)c2ccc3c(c2)C(=O)N(c2ccc(Sc4ccc([N+](=O)[O-])cc4)cc2)C3=O)cc1 | 2070 | > 1250 | > 10000
CCCCNc1c2c(c(C#N)c3nc4ccccc4n13)CCC2 | 367 | 113 | > 100000
CC[n+]1c(/C=C/c2ccc(SC)cc2)ccc2ccccc21 | 102 | 43.6 | > 10000
N#Cc1cccc(C=CC(=O)O)c1 | 1220 | > 12500 | > 100000
CCOC(=O)N1CCC(N2C(=O)c3ccccc3C2Nc2ccc(OCC)cc2)CC1 (stereo not drawn) | 2580 | > 12500 | > 100000
CCC(=O)N1CCc2cc(Br)cc(S(=O)(=O)N3CCCCC3CC)c21 (stereo not drawn) | 5700 | 9980 | > 100000
C=CC1CN2CCC1CC2C(OC(=O)C1CC1)c1ccnc2ccccc12 (stereo not drawn) | 199 | 84.7 | 42200
N#Cc1nc(C(=O)N2CCOCC2)oc1N1CCOCC1 | > 1250 | 995 | > 10000
CC(=O)N(C1=C(N(C)C)C(=O)c2ccccc2C1=O)c1ccc(F)c(F)c1 | 41.1 | 16.1 | 2360
CC(C)CNC(=O)c1cnc(NCCCN(C)C)nc1NCC1CCCCC1 | 815 | 334 | > 10000
COC(=O)c1ccc(N(C(=O)Cc2c[nH]c3ccccc23)C(C(=O)NC2CCCCC2)c2cccnc2)cc1 (stereo not drawn) | 132 | 232 | > 100000
CCCCCCCCOC(=O)NCCCCCCNC(=O)OCCCCCCCC | 4190 | > 12500 | > 100000
C[C@H](Nc1cncc(-c2cccc(OC(F)(F)F)c2)n1)c1ccccc1 | 1180 | > 264 | > 10000
CCc1ccc(C(C)=NNc2nc(O)cc(-c3ccccc3)n2)cc1 | > 1460 | 1780 | > 10000
CCOC(=O)C1=C(C)NC2=C(C(=O)CC(c3ccccc3)C2)C1c1ccccc1Cl (stereo not drawn) | 34.9 | 251 | > 100000
CCOc1ccc(CN(C(=O)C(C)(C)CCl)C(C)CCCN(CC)CC)cc1 (stereo not drawn) | 941 | > 878 | > 10000

Source: ChEMBL document CHEMBL1156829 (Proc Natl Acad Sci U S A, 2008)
